{
  "source": "patent US20080015147A1",
  "about": "“Method for inhibiting neuronal cell death” (priority 2006, published 2008)",
  "format_in_all_cases": "cell-based, mouse",
  "key": {"N38 cells": {"tested_on": "N38 cells", "assay": "Cell proliferation by direct hemocytometer counts", "settings": "for total cell numbers relative to vehicle: 48 hrs, 2×10^−7 M", "experimental": "At 24 and 48 hrs, the medium was replaced with medium buffered at pH 6.8, 7.4, 8.0 or 8.4. Half of the cell groups received (2×10^−7 M) TCAP-1, whereas the other half received phosphate buffered saline (PBS) pH 7.4 containing 8 g NaCl, 0.2 g KCl, 1.4 g Na2HPO4, 0.2 g KH2PO4 in. 800 mL ddH2O. For all groups, 4 replicates were run. Digital pictures were taken at 24, 48 and 72 hrs using an Olympus IX&1 inverted microscope at a magnification of 200× and analyzed using LabWorks 4.0 Image Acquisition and Analysis software (UltraViolet Products Ltd).\nThe effect of TCAP-1 on cell proliferation at each pH was examined by direct counts using a hemocytometer and indirectly by assessing mitochondrial activity using a colorimetric MTT (3-[4,5-dimethylthiazol-2-yl]-2,5-diphenyl tetrazolium bromide) assay on cultured N38 cells. For hemocytometer counts, the cultures were incubated for 24 and 48 hrs. The cells were suspended using 1 ml of 0.25% Trypsin with EDTA (Gibco-Invitrogen, Burlington, Canada), centrifuged at 1600 RPM for 4 min, and resuspended with PBS. The cells in 50 μl aliquots were vortexed and counted on a hemocytometer."}, "cleaved caspase 3": {"tested_on": "cleaved caspase 3", "assay": "Caspase 3 cleavage by immunoblot", "settings": "48 hr; any pH condition for TCAP-1", "experimental": "Detection of caspase 3 cleavage was determined at 48 hrs. The samples at each pH and control (see above) were lysed using total protein isolation lysis buffer (described above). An aliquot of 25 μl of each sample was combined with 25 μl of 2×20% sodium dodecyl sulphate (SDS) sample buffer and loaded onto a 4-10% HCL-Tris pre cast polyacrylamide gel (BioRad, Mississauga). The gel was run at 200 v for 35 min and proteins were electrotransfered to a Hybond-C nitrocellulose membrane (Amersham, Baie d'Urfé) for 75 min at 100 v. After transfer, the membrane was washed with 10 ml of PBS with 0.05% Tween 20 (PBST) for 5 min at room temperature (RT) and the membrane was incubated in 10 ml of PBST-milk for one hour at RT followed by 3 times for 5 min washes with 10 ml of PBST. The membrane was then incubated with cleaved caspase 3 primary antibody (Cell Signaling Technology, Beverly) at a titre of 1:500 in 6 ml of PBST-milk with gentle agitation overnight at 4° C. The membranes were washed 3 times for 5 min with 10 ml of PBST followed by membrane incubation with anti-rabbit horseradish peroxidase (HRP)-conjugated secondary antibody (Amersham, Baie d'Urfé) at 1:3000 in 6 ml of PBST-milk with gentle agitation for 1 hr at RT. […]"}, "catalase": {"tested_on": "catalase", "assay": "Catalase gene expression by real-time PCR", "settings": "p<0.001"}, "Phospho-Akt": {"tested_on": "Phospho-Akt", "assay": "Phospho-Akt western blot", "settings": "all pH treatments; 48 hrs", "experimental": "Western blots using Akt and phosphorylated Akt (P-Akt) primary antibodies were conducted on all conditions of the cultured N38 cells to determine whether TCAP was preventing cell death by phosphorylation. The same western blot procedure outlined above was repeated with an Akt primary antibody (Cell Signalling, Beverly) at a titer of 1:500, followed by membrane incubation with anti-rabbit HRP-conjugated secondary antibody (Amersham, Baie d'Urfé) at 1:3000, followed by exposure on Kodak X-OMAT Blue film (Perkin Elmer Canada Inc, Vaudreuil-Dorion) for 30 min. Phospho Akt expression at 48 hrs was determined using the method described above with a PAkt primary antibody (Cell Signalling 9271) at 1:1000 followed by membrane incubation with anti-rabbit HRP-conjugated secondary antibody (Amersham, Baie d'Urfé) at 1:2000 followed by exposure on Kodak X-OMAT Blue film (Perkin Elmer Canada Inc, Vaudreuil-Dorion) overnight. Cultured N38 cells were serum-starved for 48 hours in order to induce phosphorylation and following the same protocol above were loaded as a control. Total optical density of the blots, were quantified using LabWorks 4.0 Image Acquisition and Analysis Software from Ultra-Violet Products Ltd. (UVP)."}, "PARP": {"tested_on": "PARP", "assay": "PARP cleavage by immunoblot", "settings": "48 hour; all pH treatments", "experimental": "Using the same protocol, changes in PARP expression were determined at 48 hrs. The membrane was incubated with PARP primary antibody (Cell Signaling Technology, Beverly) at a titre of 1:100. The membranes were washed 3 times for 5 min with 10 ml of PBST followed by membrane incubation with anti-rabbit horseradish peroxidase (HRP)-conjugated secondary antibody (Amersham, Baie d'Urfé) at 1:3000 in 6 ml of PBST-milk with gentle agitation for 1 hr at RT. The membranes were then washed 3 times for 5 min with 10 ml of PBST then exposed to Kodak X-OMAT Blue scientific imaging film (Perkin Elmer Canada Inc, Vaudreuil-Dorion) for 30 min. Total optical density of the blots, were quantified using LabWorks 4.0 Image Acquisition and Analysis Software from Ultra-Violet Products Ltd. (UVP)."}},
  "note": "“Also recorded” adds a separate entry of the source.",
  "data": [
    {"substance": "teneurin C-terminus associated peptide [TCAP-1]", "values": [
      {"measurement": "total number of cells vs vehicle", "setting": "N38 cells; 24 hrs, any pH condition", "value": "no significant differences in the total number of cells"},
      {"measurement": "total cell numbers relative to vehicle", "setting": "N38 cells; pH 6.8", "value": "increased the number of cells"},
      {"measurement": "total cell numbers relative to vehicle", "setting": "N38 cells; pH 6.8, listed as TCAP", "value": "inhibited the decrease in total cell numbers"},
      {"measurement": "total cell numbers relative to vehicle", "setting": "N38 cells; pH 8.0", "value": "increased the number of cells"},
      {"measurement": "total cell numbers relative to vehicle", "setting": "N38 cells; pH 8.0, listed as TCAP", "value": "inhibited the decrease in total cell numbers"},
      {"measurement": "total cell numbers relative to vehicle", "setting": "N38 cells; pH 8.4", "value": "increased the number of cells"},
      {"measurement": "total cell numbers relative to vehicle", "setting": "N38 cells; pH 8.4, listed as TCAP", "value": "inhibited the decrease in total cell numbers"},
      {"measurement": "caspase 3 cleavage product (17/19 kDa) on western blot", "setting": "cleaved caspase 3", "value": "could not be observed"},
      {"measurement": "catalase mRNA induction", "setting": "catalase; pH 8.0", "value": 3, "unit": "fold"},
      {"measurement": "catalase mRNA induction", "setting": "catalase; pH 8.4", "value": 5, "unit": "fold"},
      {"measurement": "Akt phosphorylation (serine 473) on western blot", "setting": "Phospho-Akt", "value": "no bands in any samples; also recorded: no indication of AKT phosphorylation"},
      {"measurement": "PARP on western blot, vehicle vs TCAP", "setting": "PARP", "value": "no significant differences between vehicle and TCAP treated samples"}
    ]}
  ]
}
